According to paper PMC6508677, “Identification of druggable small molecule antagonists of the Plasmodium falciparum hexose transporter PfHT and assessment of ligand access to the glucose permeation pathway via FLAG-mediated protein engineering” (PLoS ONE, 2019):
Several values for one entry are separate records, joined by “and”; a condition that tells them apart may be missing. Equal values may be shown once. Read-outs that look alike come from different tables or passages of the source.

Molecular target: T1, FTPfHT (Plasmodium falciparum, UniProt Q7KWJ5)
T1 sequence (Q7KWJ5 1-504): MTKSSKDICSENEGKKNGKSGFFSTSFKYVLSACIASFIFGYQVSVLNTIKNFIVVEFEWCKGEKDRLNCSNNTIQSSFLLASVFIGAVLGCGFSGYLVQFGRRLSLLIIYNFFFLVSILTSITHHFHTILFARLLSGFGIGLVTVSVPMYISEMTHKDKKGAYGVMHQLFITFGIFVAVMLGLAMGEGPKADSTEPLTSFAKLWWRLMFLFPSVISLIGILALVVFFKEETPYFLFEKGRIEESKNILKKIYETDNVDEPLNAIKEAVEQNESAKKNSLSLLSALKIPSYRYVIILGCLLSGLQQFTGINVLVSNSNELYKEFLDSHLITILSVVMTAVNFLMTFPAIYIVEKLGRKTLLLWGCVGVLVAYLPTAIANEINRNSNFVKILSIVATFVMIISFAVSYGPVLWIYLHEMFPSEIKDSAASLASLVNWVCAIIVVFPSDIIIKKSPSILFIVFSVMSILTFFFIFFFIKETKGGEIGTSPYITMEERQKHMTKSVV
Experiment: [3H]-D-glucose specific uptake into FTPfHT-containing liposomes
Type: biochemical
Conditions: for D-Glc - L-Glc Uptake, single experiments / D-Glc - L-Glc Uptake, Ave: liposomes; for D-Glc - L-Glc Uptake, Ave: average of Expt 1-3
Text: SalI and NotI restriction sites were introduced to the 5’ and 3’ ends, respectively, of FTPfHT cDNA via PCR and then this construct was placed into the multiple cloning site of the pACMV-tetO vector [25]. Stable tetracycline-inducible HEK293S GnTI cell lines expressing FTPfHT were generated using the same protocol previously described for FTGLUT4 [26]. FTPfHT protein was solubilized from FTPfHT/HEK293S GnTI cell pellets with lauryl maltose neopentyl glycol (LMNG) detergent and purified using M2 anti-FLAG affinity gel (Sigma) as described in [27]. The FLAG tag was cleaved using tobacco etch virus (TEV) protease (plasmid purchased from Addgene, Cambridge, MA) at a ratio of 1:20 TEV/PfHT overnight at 4°C in the presence of 1 mM DTT. Based on SDS-PAGE and Blue BANDit protein stain (Amresco, Solon, OH), PfHT protein after FLAG elution was ~95% pure.
Liposomes containing PfHT were made according to Hresko et al.. Briefly, purified PfHT protein in LMNG micelles described above were mixed with Triton X-100 destabilized eggPC/POPA/POPE (70:15:15) large unilamellar vesicles (lipid to protein ratio of 100–125:1 (w/w)). By slowly removing the detergents with Amberlite XAD-2 beads (Supelco Analytical, Bellefonte, PA), PfHT protein spontaneously inserts into the liposomes. After removal of the beads, liposomes were collected by ultracentrifugation, resuspended in buffer, and flash-frozen with liquid nitrogen. Frozen liposomes containing purified PfHT protein were thawed at room temperature followed by extrusion through a 200-nm polycarbonate filter to create liposomes of uniform size. Uptake was started by adding [^3H]-D-glucose (1 μCi/ml, 200 μM cold D-glucose) to PfHT proteoliposomes at room temperature. Transport was stopped at different times with 5 ml of ice-cold quench buffer (50 mM potassium phosphate, 130 mM KCl, pH 7.4) and then filtered by vacuum on a 0.2-μm mixed cellulose ester filter (Advantec, Durham, NC). Filters were subsequently washed with an additional 10 ml of quench buffer. Scintillation fluid (Filter Count, PerkinElmer, Waltham, MA) was added to the filters and the radioactivity counted. [^3H]-L-glucose (1 μCi/ml, 200 μM cold L-glucose) was used to determine nonspecific transport. Specific uptake was calculated by subtracting nonspecific [^3H]-L-glucose from [^3H]-D-glucose uptake. Uptake was normalized to the amount of transporter per reaction, determined by analyzing aliquots of transporter-containing liposomes along with a BSA standard curve on an SDS-polyacrylamide gel stained with Blue Bandit protein stain and quantified using an Odyssey infrared imaging system (LI-COR Biosciences, Lincoln, NB). Data were fitted by least squares nonlinear regression analysis using GraphPad Prism 6.0.

## Cc1ccc(S(=O)(=O)CCNC(=O)c2c(-c3c(Cl)cccc3Cl)noc2C)cc1 [WU-1, 3-(2,6-dichlorophenyl)-5-methyl-N-[2-(4-methylbenzenesulfonyl)ethyl]-1,2-oxazole-4-carboxamide]
D-Glc - L-Glc uptake in reconstituted liposomes, Expt 1, Expt 2, Expt 3, read-out: IC50, single experiments
  IC50: 12.4 µM and 18.8 µM and 8.31 µM
S3 Fig, read-out: IC50 for specific D-glucose uptake into FTPfHT liposomes
  IC50: 13.2 ± 3.1 µM
WU-1 0.001 µM, Expt 1, Expt 2, Expt 3
  D-Glc - L-Glc Uptake, single experiments: 36.56 pmol/µg PfHT and 54.37 pmol/µg PfHT and 37.47 pmol/µg PfHT
WU-1 0.001 µM
  D-Glc - L-Glc Uptake, Ave: 42.8 pmol/µg PfHT
WU-1 0.625 µM, Expt 1, Expt 2, Expt 3
  D-Glc - L-Glc Uptake, single experiments: 44.52 pmol/µg PfHT and 43.4 pmol/µg PfHT and 46.2 pmol/µg PfHT
WU-1 0.625 µM
  D-Glc - L-Glc Uptake, Ave: 44.7 pmol/µg PfHT
WU-1 1.25 µM, Expt 1, Expt 2, Expt 3
  D-Glc - L-Glc Uptake, single experiments: 39.01 pmol/µg PfHT and 40.61 pmol/µg PfHT and 38.03 pmol/µg PfHT
WU-1 1.25 µM
  D-Glc - L-Glc Uptake, Ave: 39.22 pmol/µg PfHT
WU-1 2.5 µM, Expt 1, Expt 2, Expt 3
  D-Glc - L-Glc Uptake, single experiments: 43.49 pmol/µg PfHT and 43.42 pmol/µg PfHT and 42.09 pmol/µg PfHT
WU-1 2.5 µM
  D-Glc - L-Glc Uptake, Ave: 43 pmol/µg PfHT
WU-1 5 µM, Expt 1, Expt 2, Expt 3
  D-Glc - L-Glc Uptake, single experiments: 32.42 pmol/µg PfHT and 25.14 pmol/µg PfHT and 27.92 pmol/µg PfHT
WU-1 5 µM
  D-Glc - L-Glc Uptake, Ave: 28.49 pmol/µg PfHT
WU-1 10 µM, Expt 1, Expt 2, Expt 3
  D-Glc - L-Glc Uptake, single experiments: 23.96 pmol/µg PfHT and 25.01 pmol/µg PfHT and 20.67 pmol/µg PfHT
WU-1 10 µM
  D-Glc - L-Glc Uptake, Ave: 23.21 pmol/µg PfHT
WU-1 20 µM
  D-Glc - L-Glc Uptake, Ave: 17.17 pmol/µg PfHT
WU-1 40 µM, Expt 1, Expt 2, Expt 3
  D-Glc - L-Glc Uptake, single experiments: 10.91 pmol/µg PfHT and 13.9 pmol/µg PfHT and 10.43 pmol/µg PfHT
WU-1 40 µM
  D-Glc - L-Glc Uptake, Ave: 11.75 pmol/µg PfHT
WU-1 80 µM, Expt 1, Expt 2, Expt 3
  D-Glc - L-Glc Uptake, single experiments: 3.31 pmol/µg PfHT and 3.52 pmol/µg PfHT and 3.4 pmol/µg PfHT
WU-1 80 µM
  D-Glc - L-Glc Uptake, Ave: 3.41 pmol/µg PfHT
WU-1 160 µM, Expt 1, Expt 2, Expt 3
  D-Glc - L-Glc Uptake, single experiments: 4.44 pmol/µg PfHT and 4.32 pmol/µg PfHT and 4.15 pmol/µg PfHT
WU-1 160 µM
  D-Glc - L-Glc Uptake, Ave: 4.3 pmol/µg PfHT
